For this assay, the target named is T1, crosslinked smooth muscle actomyosin (chicken gizzard smooth muscle myosin subfragment-1 crosslinked to cardiac or skeletal actin) (Gallus gallus, UniProt P10587).
T1 construct: chicken gizzard smooth muscle myosin subfragment-1; from tissue; host or cells: chicken gizzard
As to the kind of experiment: Lead optimization pyruvate kinase/horseradish peroxidase/pyruvate oxidase-coupled ATPase assay (compound dose response). Format: biochemical. Particulars: read-out: IC50 Arithmetic Mean. In outline:
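The ATPase used chicken gizzard smooth muscle myosin S1 chemically crosslinked to cardiac or skeletal actin, titrated to a set hydrolysis rate. It was coupled via pyruvate kinase/pyruvate oxidase/HRP in 12 mM K-PIPES pH 7.00 (22 °C) with 0.15 mM ATP, 2 mM MgCl2, 100 mM KCl and 0.1 mM Amplex Red. Fluorescence was read at ex 480/em 615 nm, and IC50 came from a 4-parameter fit.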

A word on the IC50: it is the point on the concentration scale where inhibition reaches its midpoint.

With `CCc1ccc(NC(=O)OCCCCN(C)C(=O)NCc2ccccc2Cl)cc1` [{[(2-chlorophenyl)methyl]amino}-N-{4-[N-(4-ethylphenyl)carbamoyloxy]butyl}-N-methylcarboxamide], the IC50 was 6.07 µM.

As to `CCc1ccc(NC(=O)OCCN(C)C(=O)N(C)Cc2ccccc2Cl)cc1` [{[(2-chlorophenyl)methyl]methylamino}-N-{2-[N-(4-ethylphenyl)carbamoyloxy]ethyl}-N-methylcarboxamide], the IC50 is 2.08 µM. “(tert-butoxy)-N-[2-(3-{N-[(2-chlorophenyl)methyl]carbamoyl}-3-{[N-(4-ethylphenyl)carbamoyloxy]methyl}piperidyl)-2-oxoethyl]carboxamide”: the IC50 came out at 1.43 µM. Take “methyl (3S)-3-amino-4-(4-{N-[(2-chlorophenyl)methyl]carbamoyl}-4-{[N-(4-ethylphenyl)carbamoyloxy]methyl}piperidyl)-4-oxobutanoate”: the half-inhibitory concentration (IC50) was determined as 1.12 µM.

For “tert-butyl 4-[(4-{N-[(2-chlorophenyl)methyl]carbamoyl}-4-{[N-(4-ethylphenyl)carbamoyloxy]methyl}piperidyl)carbonyl]piperidinecarboxylate”, the IC50 was found to be 3.55 µM.

These data come from patent publication US8071625B2, “Certain chemical entities, compositions, and methods” (Cytokinetics, Inc., priority 2006, dated 2011).
